According to patent US6737383B1, “Herbicidal oxadiazolidines” (priority 1999, dated 2004):

Experiments:
[1] = system: bedstraw; assay: Test B pre/postemergence bedstraw; type: in vivo, Galium aparine
Outline: (§1)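 Response is a visual 0-to-10 score relative to untreated plants, where 0 means no effect and 10 means complete control, taken twelve to sixteen days after application. Treatments went onto soil at planting and onto foliage of 1- to 4-leaf plants, using a surfactant-containing non-phytotoxic solvent.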

[2] = system: blackgrass; assay: Test B pre/postemergence blackgrass; type: in vivo, Alopecurus myosuroides
Outline: as §1

[3] = system: surinam grass; assay: Test B pre/postemergence surinam grass; type: in vivo, Brachiaria decumbens
Outline: as §1

[4] = system: cocklebur; assay: Test B pre/postemergence cocklebur; type: in vivo, Xanthium strumarium
Outline: as §1

[5] = system: corn; assay: Test B pre/postemergence corn; type: in vivo, Zea mays
Outline: as §1

[6] = system: crabgrass; assay: Test B pre/postemergence crabgrass; type: in vivo, Digitaria sanguinalis
Outline: as §1

[7] = system: giant foxtail; assay: Test B pre/postemergence giant foxtail; type: in vivo, Setaria faberii
Outline: as §1

[8] = system: morningglory; assay: Test B pre/postemergence morningglory; type: in vivo, Ipomoea hederacea
Outline: as §1

[9] = system: pigweed; assay: Test B pre/postemergence pigweed; type: in vivo, Amaranthus retroflexus
Outline: as §1

[10] = system: rape; assay: Test B pre/postemergence rape; type: in vivo, Brassica napus
Outline: as §1

[11] = system: soybean; assay: Test B pre/postemergence soybean; type: in vivo, Glycine max
Outline: as §1

[12] = system: sugar beet; assay: Test B pre/postemergence sugar beet; type: in vivo, Beta vulgaris
Outline: as §1

[13] = system: velvetleaf; assay: Test B pre/postemergence velvetleaf; type: in vivo, Abutilon theophrasti
Outline: as §1

[14] = system: wheat; assay: Test B pre/postemergence wheat; type: in vivo, Triticum aestivum
Outline: as §1

[15] = system: wild oat; assay: Test B pre/postemergence wild oat; type: in vivo, Avena fatua
Outline: as §1

[16] = system: purple nutsedge; assay: Test B pre/postemergence purple nutsedge; type: in vivo, Cyperus rotundus
Outline: as §1

[17] = Postemergence, Rate 62 g/ha, scale of 0 to 10, 0 is no effect, 10 is complete control
[18] = Postemergence, Rate 125 g/ha, scale 0 to 10, 0 is no effect, 10 is complete control
[19] = Postemergence, Rate 500 g/ha, scale 0 to 10, 0 is no effect, 10 is complete control
[20] = Preemergence, Rate 62 g/ha, scale 0 to 10 (0 no effect, 10 complete control)
[21] = Preemergence, Rate 125 g/ha, scale 0 to 10, 0 is no effect, 10 is complete control
[22] = Preemergence, Rate 500 g/ha, scale of 0 to 10 where 0 is no effect and 10 is complete control
[23] = Rate 250 g/ha, Postemergence, scale of 0 to 10 where 0 is no effect and 10 is complete control

CC(Cl)=CCn1c(=O)on(C(=O)N(c2ccc(Cl)cc2)C(C)C)c1=O [Compound 544]
Bedstraw plant response rating [1, 17]: 0 | Bedstraw plant response rating [1, 18]: 2 | Plant response rating, Bedstraw [1, 19]: 3 | Bedstraw plant response rating [1, 20]: 0 | Bedstraw plant response rating [1, 21]: 2 | Bedstraw plant response rating (0 to 10 scale) ([1]; Preemergence, Rate 250 g/ha): 7 | Bedstraw plant response rating [1, 22]: 9 | Plant response rating, Bedstraw [1, 23]: 2 | Blackgrass plant response rating [2, 17]: 0 | Blackgrass plant response rating [2, 18]: 0 | Plant response rating, Blackgrass [2, 19]: 3 | Blackgrass plant response rating [2, 20]: 0 | Blackgrass plant response rating [2, 21]: 0 | Blackgrass plant response rating (0 to 10 scale) ([2]; Preemergence, Rate 250 g/ha): 2 | Blackgrass plant response rating [2, 22]: 6 | Plant response rating, Blackgrass [2, 23]: 0 | B. signalgrass plant response rating [3, 17]: 0 | B. signalgrass plant response rating [3, 18]: 0 | Plant response rating, B. signalgrass [3, 19]: 3 | B. signalgrass plant response rating [3, 20]: 3 | B. signalgrass plant response rating [3, 21]: 3 | B. signalgrass plant response rating (0 to 10 scale, 0 is no effect, 10 is complete control) ([3]; Preemergence, Rate 250 g/ha): 6 | B. signalgrass plant response rating [3, 22]: 8 | Plant response rating, B. signalgrass [3, 23]: 0 | Cocklebur plant response rating [4, 17]: 3 | Cocklebur plant response rating [4, 18]: 3 | Plant response rating, Cocklebur [4, 19]: 3 | Cocklebur plant response rating [4, 20]: 0 | Cocklebur plant response rating (0 to 10 scale) ([4]; Preemergence, Rate 250 g/ha): 0 | Cocklebur plant response rating [4, 22]: 0 | Plant response rating, Cocklebur [4, 23]: 3 | Corn plant response rating [5, 17]: 0 | Corn plant response rating [5, 18]: 0 | Plant response rating, Corn [5, 19]: 0 | Corn plant response rating [5, 20]: 0 | Corn plant response rating [5, 21]: 0 | Corn plant response rating (0 to 10 scale) ([5]; Preemergence, Rate 250 g/ha): 0 | Corn plant response rating [5, 22]: 0 | Plant response rating, Corn [5, 23]: 0 | Crabgrass plant response rating [6, 17]: 0 | Crabgrass plant response rating [6, 18]: 8 | Plant response rating, Crabgrass [6, 19]: 9 | Crabgrass plant response rating [6, 20]: 9 | Crabgrass plant response rating [6, 21]: 9 | Crabgrass plant response rating (0 to 10 scale) ([6]; Preemergence, Rate 250 g/ha): 10 | Crabgrass plant response rating [6, 22]: 10 | Plant response rating, Crabgrass [6, 23]: 8 | Giant foxtail plant response rating [7, 17]: 0 | Giant foxtail plant response rating [7, 18]: 0 | Giant foxtail plant response rating [7, 20]: 9 | Giant foxtail plant response rating [7, 21]: 10 | Giant foxtail plant response rating (0 to 10 scale) ([7]; Preemergence, Rate 250 g/ha): 10 | Giant foxtail plant response rating [7, 22]: 10 | Plant response rating, Giant foxtail [7, 23]: 6 | Morningglory plant response rating [8, 17]: 3 | Morningglory plant response rating [8, 18]: 4 | Plant response rating, Morningglory [8, 19]: 10 | Morningglory plant response rating [8, 20]: 0 | Morningglory plant response rating [8, 21]: 0 | Morningglory plant response rating (0 to 10 scale) ([8]; Preemergence, Rate 250 g/ha): 0 | Morningglory plant response rating [8, 22]: 0 | Plant response rating, Morningglory [8, 23]: 10 | Redroot pigweed plant response rating [9, 17]: 0 | Redroot pigweed plant response rating [9, 18]: 0 | Plant response rating, Redroot pigweed [9, 19]: 2 | Redroot pigweed plant response rating [9, 20]: 3 | Redroot pigweed plant response rating [9, 21]: 3 | Redroot pigweed plant response rating (0 to 10 scale) ([9]; Preemergence, Rate 250 g/ha): 3 | Redroot pigweed plant response rating [9, 22]: 10 | Plant response rating, Redroot pigweed [9, 23]: 0 | Rape plant response rating [10, 17]: 0 | Rape plant response rating [10, 18]: 2 | Plant response rating, Rape [10, 19]: 3 | Rape plant response rating [10, 20]: 0 | Rape plant response rating [10, 21]: 0 | Rape plant response rating (0 to 10 scale) ([10]; Preemergence, Rate 250 g/ha): 3 | Rape plant response rating [10, 22]: 6 | Plant response rating, Rape [10, 23]: 2 | Soybean plant response rating [11, 17]: 0 | Soybean plant response rating [11, 18]: 2 | Plant response rating, Soybean [11, 19]: 2 | Soybean plant response rating [11, 20]: 0 | Soybean plant response rating [11, 21]: 0 | Soybean plant response rating (0 to 10 scale) ([11]; Preemergence, Rate 250 g/ha): 0 | Soybean plant response rating [11, 22]: 0 | Plant response rating, Soybean [11, 23]: 0 | Sugarbeets plant response rating [12, 17]: 0 | Sugarbeets plant response rating [12, 18]: 0 | Plant response rating, Sugarbeets [12, 19]: 3 | Sugarbeets plant response rating [12, 20]: 0 | Sugarbeets plant response rating [12, 21]: 0 | Sugarbeets plant response rating (0 to 10 scale) ([12]; Preemergence, Rate 250 g/ha): 0 | Sugarbeets plant response rating [12, 22]: 4 | Plant response rating, Sugarbeets [12, 23]: 1 | Velvetleaf plant response rating [13, 17]: 0 | Velvetleaf plant response rating [13, 18]: 0 | Plant response rating, Velvetleaf [13, 19]: 0 | Velvetleaf plant response rating [13, 20]: 0 | Velvetleaf plant response rating [13, 21]: 0 | Velvetleaf plant response rating (0 to 10 scale) ([13]; Preemergence, Rate 250 g/ha): 0 | Velvetleaf plant response rating [13, 22]: 0 | Plant response rating, Velvetleaf [13, 23]: 0 | Wheat plant response rating [14, 17]: 0 | Wheat plant response rating [14, 18]: 0 | Plant response rating, Wheat [14, 19]: 0 | Wheat plant response rating [14, 20]: 0 | Wheat plant response rating [14, 21]: 0 | Wheat plant response rating (0 to 10 scale) ([14]; Preemergence, Rate 250 g/ha): 0 | Wheat plant response rating [14, 22]: 0 | Plant response rating, Wheat [14, 23]: 0 | Wild oats plant response rating [15, 17]: 0 | Wild oats plant response rating [15, 18]: 0 | Plant response rating, Wild oats [15, 19]: 2 | Wild oats plant response rating [15, 20]: 0 | Wild oats plant response rating [15, 21]: 0 | Wild oats plant response rating (0 to 10 scale) ([15]; Preemergence, Rate 250 g/ha): 2 | Wild oats plant response rating [15, 22]: 4 | Plant response rating, Wild oats [15, 23]: 0 | Nutsedge plant response rating [16, 17]: 0 | Nutsedge plant response rating [16, 18]: 0 | Plant response rating, Nutsedge [16, 19]: 0 | Nutsedge plant response rating [16, 20]: 0 | Nutsedge plant response rating [16, 21]: 0 | Nutsedge plant response rating (0 to 10 scale) ([16]; Preemergence, Rate 250 g/ha): 0 | Nutsedge plant response rating [16, 22]: 0 | Plant response rating, Nutsedge [16, 23]: 0
